In article PMC10390775, “CETP inhibitor evacetrapib enters mouse brain tissue” (Frontiers in Pharmacology, 2023):

Legend:
[1] = ref Krishna et al., 2017; cited from earlier work
[2] = Dalcetrapib brain distribution in rats after i.v. dosing, compared with evacetrapib in mice; assay type: in vivo; details: rats 10 mg/kg BW dalcetrapib i.v. vs mice 40 mg/kg BW evacetrapib, ref Takubo et al., 2014
[3] = design: method as in Takubo et al., 2014; details: rats; ref Takubo et al., 2014; cited from earlier work

Row | Dalcetrapib brain concentration relative to evacetrapib concentration ([2]; 0.5 h after injection) | Dalcetrapib brain concentration relative to evacetrapib concentration ([2]; 24 h after injection) [fold] | SMILES | Accumulation in adipose tissues [1] | Crossing of the blood–brain barrier [3]
1 |  |  | COc1cc(F)c(C(C)C)cc1-c1ccc(C(F)(F)F)cc1CN1C(=O)O[C@H](c2cc(C(F)(F)F)cc(C(F)(F)F)c2)[C@@H]1C [anacetrapib] | accumulate in adipose tissues | 
2 | twofold lower | > 20 | CCC(CC)CC1(C(=O)Nc2ccccc2SC(=O)C(C)C)CCCCC1 [dalcetrapib] |  | capacity to cross the blood–brain barrier of rats
